From patent US12660819B2, “Herbicidal derivatives” (SYNGENTA CROP PROTECTION AG, priority 2020, dated 2026)

Columns and labels:
Type in all cases: in vivo
[1] = system: Ipomoea hederacea (IPOHE); assay: Pre-emergence Test (glasshouse, percentage damage to the plant); settings: 1000 g/ha unless otherwise stated, five-point scale
[2] = system: Echinochloa crus-galli (ECHCG); assay: as above; settings: 1000 g/ha unless otherwise stated, five-point scale
[3] = system: Amaranthus retoflexus (AMARE); assay: as above; settings: 1000 g/ha unless otherwise stated, five-point scale
Solanum nigrum (SOLNI) [4] = assay: Post-emergence Test (glasshouse, percentage damage to the plant); settings: post-emergence spray, 1000 g/ha unless otherwise stated, evaluated after 13 days
Method in brief: (§1)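 Seeds sown in standard soil in a glasshouse (24/16 °C day/night, 14 h light, 65% humidity), then sprayed with an aqueous solution of the compound formulated in acetone/water 50:50 with 0.5% Tween 20 at 1000 g/ha unless otherwise stated. Percentage damage was scored after 13 days on a five-point scale (5=81-100%; 1=0-20%).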

[5] = system: Ipomoea hederacea (IPOHE); assay: as above; settings: post-emergence spray, 1000 g/ha unless otherwise stated, evaluated after 13 days
Method in brief: (§2)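 Compound formulated in 50:50 acetone/water with 0.5% Tween 20 was diluted to an aqueous spray and applied at 1000 g/ha, unless otherwise stated, onto sown pots. Evaluation after 13 days gave percentage damage, banded into a 1–5 score.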

Setaria faberi (SETFA) [6] = assay: as above; settings: post-emergence spray, 1000 g/ha unless otherwise stated, evaluated after 13 days
Method in brief: as §2

Lolium perenne (LOLPE) [7] = assay: as above; settings: post-emergence spray, 1000 g/ha unless otherwise stated, evaluated after 13 days
Method in brief: as §1

[8] = system: Amaranthus retoflexus (AMARE); assay: as above; settings: post-emergence spray, 1000 g/ha unless otherwise stated, evaluated after 13 days
Method in brief: as §1

[9] = system: Echinochloa crus-galli (ECHCG); assay: as above; settings: post-emergence spray, 1000 g/ha unless otherwise stated, evaluated after 13 days
Method in brief: as §1

Setaria faberi (SETFA) [10] = assay: Pre-emergence Test (glasshouse, percentage damage to the plant); settings: 1000 g/ha unless otherwise stated, five-point scale
Lolium perenne (LOLPE) [11] = assay: as above; settings: 1000 g/ha unless otherwise stated, five-point scale
Solanum nigrum (SOLNI) [12] = assay: as above; settings: 1000 g/ha unless otherwise stated, five-point scale

Row | SMILES | percentage damage to the plant, IPOHE [1] | percentage damage to the plant, ECHCG [2] | percentage damage to the plant, AMARE [3] | Post-emergence Test SOLNI, percentage damage to the plant (five-point scale) (Solanum nigrum (SOLNI) [4]) | Post-emergence Test IPOHE, percentage damage to the plant (five-point scale) [5] | Post-emergence Test SETFA, percentage damage to the plant (five-point scale) (Setaria faberi (SETFA) [6]) | Post-emergence Test LOLPE, percentage damage to the plant (five-point scale) (Lolium perenne (LOLPE) [7]) | Post-emergence Test AMARE, percentage damage to the plant (five-point scale) [8] | Post-emergence Test ECHCG, percentage damage to the plant (five-point scale) [9] | percentage damage to the plant, SETFA (Setaria faberi (SETFA) [10]) | percentage damage to the plant, LOLPE (Lolium perenne (LOLPE) [11]) | percentage damage to the plant, SOLNI (Solanum nigrum (SOLNI) [12])
1 | CCn1c(C)c(-c2cnn(C)c2)c(=O)c(C(=O)O)c1-c1ccc(Cl)c(Cl)c1 [Compound 1, 2-(3,4-dichlorophenyl)-1-ethyl-6-methyl-5-(1-methylpyrazol-4-yl)-4-oxo-pyridine-3-carboxylic acid] | 4 (4=61-80%) | 5 (5=81-100%) | 1 (1=0-20%) | 5 (5=81-100%) | 4 (4=61-80%) | 5 (5=81-100%) | 3 (3=41-60%) | 5 (5=81-100%) | 5 (5=81-100%) | 5 (5=81-100%) | 4 (4=61-80%) | 5 (5=81-100%)
2 | Cc1c(-c2ccc(Cl)cc2)c(=O)c(C(=O)O)c(-c2ccc(Cl)c(Cl)c2)n1C [Compound 5, 5-(4-chlorophenyl)-2-(3,4-dichlorophenyl)-1,6-dimethyl-4-oxo-pyridine-3-carboxylic acid] | 4 (4=61-80%) | 4 (4=61-80%) | 4 (4=61-80%) | 2 (2=21-40%) | 3 (3=41-60%) | 5 (5=81-100%) | 1 (1=0-20%) | 3 (3=41-60%) | 5 (5=81-100%) | 4 (4=61-80%) | 4 (4=61-80%) | 4 (4=61-80%)
3 | CCn1c(C)c(-c2cccnc2F)c(=O)c(C(=O)O)c1-c1ccc(Cl)c(Cl)c1 [Compound 6, 2-(3,4-dichlorophenyl)-1-ethyl-5-(2-fluoro-3-pyridyl)-6-methyl-4-oxo-pyridine-3-carboxylic acid] | 1 (1=0-20%) | 4 (4=61-80%) | 4 (4=61-80%) | 3 (3=41-60%) | 1 (1=0-20%) | 4 (4=61-80%) | 4 (4=61-80%) | 4 (4=61-80%) | 4 (4=61-80%) | 5 (5=81-100%) | 4 (4=61-80%) | 3 (3=41-60%)
4 | CCn1c(COC)c(-c2ccc(Cl)cc2)c(=O)c(C(=O)O)c1-c1ccc(Cl)c(Cl)c1 [Compound 7, 5-(4-chlorophenyl)-2-(3,4-dichlorophenyl)-1-ethyl-6-(methoxymethyl)-4-oxo-pyridine-3-carboxylic acid] | 1 (1=0-20%) | 2 (2=21-40%) | – | 2 (2=21-40%) | 2 (2=21-40%) | 4 (4=61-80%) | 1 (1=0-20%) | 5 (5=81-100%) | 4 (4=61-80%) | 2 (2=21-40%) | 1 (1=0-20%) | 1 (1=0-20%)
5 | CCn1c(C)c(-c2ccc(F)nc2)c(=O)c(C(=O)O)c1-c1ccc(Cl)c(Cl)c1 [Compound 8, 2-(3,4-dichlorophenyl)-1-ethyl-5-(6-fluoro-3-pyridyl)-6-methyl-4-oxo-pyridine-3-carboxylic acid] | 1 (1=0-20%) | 2 (2=21-40%) | 3 (3=41-60%) | 5 (5=81-100%) | 4 (4=61-80%) | 5 (5=81-100%) | 3 (3=41-60%) | 5 (5=81-100%) | 4 (4=61-80%) | 4 (4=61-80%) | 3 (3=41-60%) | 3 (3=41-60%)
6 | CCn1c(C)c(-c2ccc(Cl)c(F)c2)c(=O)c(C(=O)O)c1-c1ccc(Cl)c(Cl)c1 [Compound 9, 5-(4-chloro-3-fluoro-phenyl)-2-(3,4-dichlorophenyl)-1-ethyl-6-methyl-4-oxo-pyridine-3-carboxylic acid] | 1 (1=0-20%) | 5 (5=81-100%) | 5 (5=81-100%) | 3 (3=41-60%) | 3 (3=41-60%) | 5 (5=81-100%) | 1 (1=0-20%) | 5 (5=81-100%) | 5 (5=81-100%) | 4 (4=61-80%) | 1 (1=0-20%) | 3 (3=41-60%)
7 | CCn1c(C)c(-c2ccc(Cl)cc2)c(=O)c(C(=O)O)c1-c1ccc(Cl)c(Cl)c1 [Compound 10, 5-(4-chlorophenyl)-2-(3,4-dichlorophenyl)-1-ethyl-6-methyl-4-oxo-pyridine-3-carboxylic acid] | 2 (2=21-40%) | 3 (3=41-60%) | 5 (5=81-100%) | 5 (5=81-100%) | 4 (4=61-80%) | 5 (5=81-100%) | 3 (3=41-60%) | 5 (5=81-100%) | 4 (4=61-80%) | 4 (4=61-80%) | 1 (1=0-20%) | 4 (4=61-80%)
8 | CCn1c(C)c(-c2ccc(F)cc2)c(=O)c(C(=O)O)c1-c1ccc(Cl)c(Cl)c1 [Compound 11, 2-(3,4-dichlorophenyl)-1-ethyl-5-(4-fluorophenyl)-6-methyl-4-oxo-pyridine-3-carboxylic acid] | 2 (2=21-40%) | 5 (5=81-100%) | 5 (5=81-100%) | 5 (5=81-100%) | 4 (4=61-80%) | 4 (4=61-80%) | 2 (2=21-40%) | 4 (4=61-80%) | 4 (4=61-80%) | 5 (5=81-100%) | 1 (1=0-20%) | 5 (5=81-100%)
9 | CCn1c(C)c(-c2ccc(Cl)nc2)c(=O)c(C(=O)O)c1-c1ccc(Cl)c(Cl)c1 [Compound 12, 5-(6-chloro-3-pyridyl)-2-(3,4-dichlorophenyl)-1-ethyl-6-methyl-4-oxo-pyridine-3-carboxylic acid] | 1 (1=0-20%) | 4 (4=61-80%) | 5 (5=81-100%) | – | 4 (4=61-80%) | 5 (5=81-100%) | 3 (3=41-60%) | 5 (5=81-100%) | 4 (4=61-80%) | 5 (5=81-100%) | 1 (1=0-20%) | –
10 | CCn1c(C)c(-c2cccnc2)c(=O)c(C(=O)O)c1-c1ccc(Cl)c(Cl)c1 [Compound 21, 2-(3,4-dichlorophenyl)-1-ethyl-6-methyl-4-oxo-5-pyridin-1-ium-3-yl-pyridine-3-carboxylic acid;2,2,2-trifluoroacetate] | – | 2 (2=21-40%) | – | 4 (4=61-80%) | 3 (3=41-60%) | – | – | 3 (3=41-60%) | 3 (3=41-60%) | 3 (3=41-60%) | – | –
